Test results: patent US8796457B2, “Compound useful for the treatment of degenerative and inflammatory diseases” (Galapagos NV, priority 2009, dated 2014)

Tests used:
[1] = biological target: Recombinant human JAK2 (catalytic domain) (Homo sapiens (Human), UniProt O60674); assay: JAK2 inhibition assay; assay type: biochemical; settings: average ± standard error of the mean; 7.5 μM ATP
Description: Recombinant human JAK2 (catalytic domain, amino acids 866-1154; catalog number PV4210) was purchased from Invitrogen. 0.0125 mU of JAK2 was incubated with 25 nM Ulight-JAK1(tyr1023) peptide (Perkin Elmer catalog number TRF0121) in kinase reaction buffer (41.66 mM HEPES pH7.0, 0.016% Triton X-100, 12.5 mM MgCl2, 3.33 mM DTT, 7.5 μM ATP) with or without 4 μL containing test compound or vehicle (DMSO, 1% final concentration), in a total volume of 20 μL, in a white 384 Luminotrac 200 plate (Greiner, catalog number 781075). […] Readout is performed using the Envision with excitation at 320nm and measuring emission at 615 nm (Perkin Elmer). Kinase activity was calculated by subtracting relative fluorescence units (RFU) obtained in the presence of a positive control inhibitor (10 μM staurosporine) from RFU obtained in the presence of vehicle. The ability of a test compound to inhibit this activity was determined as: Percentage inhibition=((RFU determined for sample with test compound present−RFU determined for sample with positive control inhibitor) divided by (RFU determined in the presence of vehicle−RFU determined for sample with positive control inhibitor))*100. […]

[2] = test system: collagen induced arthritis; assay: Rat collagen induced arthritis (CIA) model; assay type: in vivo
Description: Completed Freund's adjuvant (CFA) and incomplete Freund's adjuvant (IFA) were purchased from Difco. Bovine collagen type II (CII), lipopolysaccharide (LPS), and Enbrel were obtained from Chondrex (Isle d'Abeau, France); Sigma (P4252, L'Isle d'Abeau, France), Whyett (25 mg injectable syringe, France) Acros Organics (Palo Alto, Calif.), respectively. All other reagents used were of reagent grade and all solvents were of analytical grade.
Dark Agouti rats (male, 7-8 weeks old) are obtained from Harlan Laboratories (Maison-Alfort, France). DBA/1J mice (male, 7 weeks old) were obtained from Centre d'Elevage et de Reproduction JANVIER (CERJ) (Laval, France). Rats and mice were kept on a 12 hours light/dark cycle (0700-1900). The temperature was maintained at 22° C., and food and water were provided ad libitum.
One day before the experiment, CII solution (2 mg/mL) was prepared with 0.05 M acetic acid and stored at 4° C. Just before the immunization, equal volumes of adjuvant (IFA) and CII were mixed by a homogenizer in a pre-cooled glass bottle in an ice water bath. Extra adjuvant and prolonged homogenization might be required if an emulsion is not formed.
Rat: 0.2 mL of the emulsion is injected intradermally at the base of the tail of each rat on day 1, a second booster intradermal injection (CII solution at 2 mg/mL in CFA 0.1 mL saline) is performed on day 9. This immunization method is modified from published methods (Sims N A et al., (2004) Targeting osteoclasts with zoledronic acid prevents bone destruction in collagen-induced arthritis, Arthritis Rheum. 50 2338-2346; Jou et al., 2005).
The therapeutic effects of the test compounds were tested in the rat or mouse CIA model. Animals were randomly divided into equal groups and each group contained 10 animals. All rats are immunized on day 1 and boosted on day 9. All mice were immunized on day 1 and boosted on day 21. Therapeutic dosing lasted from day 16 to day 30. The negative control group was treated with vehicle (MC 0.5%) and the positive control group with Enbrel (10 mg/kg, 3× week., s.c.). A compound of interest was typically tested at 3 doses, e.g. 3, 10, 30 mg/kg, p.o.
Arthritis was scored according the method of Khachigian 2006, Lin et al 2007 and Nishida et al. 2004). […]
AUC of clinical score (AUC score): The area under the curve (AUC) from day 1 to day 14 was calculated for each individual rat. The AUC of each animal was divided by the average AUC obtained for the vehicle in the study from which the data on that animal was obtained and multiplied by 100 (i.e. the AUC was expressed as a percentage of the average vehicle AUC per study).
Clinical score increase from day 1 to day 14 (End point score): The clinical score difference for each animal was divided by the average clinical score difference obtained for the vehicle in the study from which the data on that animal was obtained and multiplied by 100 (i.e. the difference was expressed as a percentage of the average clinical score difference for the vehicle per study).
Post-mortem, a Larsen' score was derived for both hind paws of all rats by at least 2 scientists. The average of these scores was calculated to obtain one Larsen' score per rat. […]

TNF release = assay: Septic shock model (LPS induced TNF release); assay type: in vivo, mouse; settings: 30 mg/kg po, LPS ip, statistically significant
Description: Injection of lipopolysaccharide (LPS) induces a rapid release of soluble tumour necrosis factor (TNF-alpha) into the periphery. This model is used to analyse prospective blockers of TNF release in vivo.
Six BALB/cJ female mice (20 g) per group are treated at the intended dosing once, po. Thirty minutes later, LPS (15 μg/kg; E. Coli serotype 0111:B4) is injected ip. Ninety minutes later, mice are euthanized and blood is collected. Circulating TNF alpha levels are determined using commercially available ELISA kits. Dexamethasone (5 μg/kg) is used as a reference anti-inflammatory compound. Selected compounds are tested at one or multiple doses, e.g. 3 and/or 10 and/or 30 mg/kg, po.

Recombinant human JAK2 (catalytic domain), sequence (O60674 849-1124): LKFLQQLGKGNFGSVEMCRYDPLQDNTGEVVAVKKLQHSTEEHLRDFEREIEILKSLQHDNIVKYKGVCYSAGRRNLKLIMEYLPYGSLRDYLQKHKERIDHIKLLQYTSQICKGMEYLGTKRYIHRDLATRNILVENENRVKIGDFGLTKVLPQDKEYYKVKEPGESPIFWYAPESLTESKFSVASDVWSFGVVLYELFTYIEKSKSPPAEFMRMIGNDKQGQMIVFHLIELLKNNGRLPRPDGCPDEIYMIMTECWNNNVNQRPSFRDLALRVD

CC1(C)CN(C(=O)c2ccc(-c3cccc4nc(NC(=O)C5CC5)nn34)cc2)C1 [Compound 1, Cyclopropanecarboxylic acid{5-[4-(3,3-dimethyl-azetidine-1-carbonyl)-phenyl]-[1,2,4]triazolo[1,5-a]pyridin-2-yl}-amide]
IC50 [1]: 67 ± 5 nM
dose from which significant improvement of paw swelling was seen ([2]; rat CIA): ≥ 1 mg/kg
dose from which significant improvement of the AUC of the clinical score was seen ([2]; rat CIA): ≥ 10 mg/kg
dose from which significant improvement of the Larsen' score was seen ([2]; rat CIA): ≥ 30 mg/kg
dose from which significant improvement of the endpoint clinical score was seen ([2]; rat CIA): ≥ 1 mg/kg
efficacy in the rat CIA study ([2]; rat, 30, 10, 3, and 1 mg/kg): efficacious in all readouts
reduction in the TNF release (TNF release): > 50%
